# Target: Transforming acidic coiled-coil-containing protein 3 (Homo sapiens) (UniProt Q9Y6A5)
# Assay: inhibition of ARNT PAS-B/TACC3 complex formation – biochemical, AlphaScreen, cherry-picked samples, confirmation (AID 651703);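 further: TACC3 partner is the GST-tagged E629A mutant dimer; hits lower the signal meaning they disrupt ARNT binding to TACC3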
# Settings: AlphaScreen His-ARNT PAS-B / GST-TACC3 binding, luminescence
row,SMILES,AC50
1,C/C=C/c1ccc([C@H]2[C@@H](CO)N(Cc3ccccn3)[C@H]2CNC(C)=O)cc1,45.9 µM
2,CCC(=O)NC(c1ccc(N(C)C)cc1)c1c(O)ccc2ccccc12 (stereo not given),35.5 µM
3,Oc1c(C(c2ccccn2)N2CCCCC2)cc(Cl)c2cccnc12 (stereo not given),1.33 µM
4,Cc1[nH][nH]c(=O)c1C(c1c(C)[nH][nH]c1=O)c1cn(Cc2cccc3ccccc23)c2ccccc12,19.9 µM
5,O=C(Nc1nnc(SCc2ccc(F)cc2)s1)c1ccccn1,7.06 µM
6,CNc1nc(C(=O)O)nc(N2CCOCC2)n1,11.6 µM
7,O=C(N[C@H]1CC[C@@H](CCn2cc(-c3ccccn3)nn2)O[C@@H]1CO)c1ccncc1,15.8 µM
8,CN1CCC(=O)N(CCOc2ccccc2)CC1,4.44 µM
9,O=C(COc1ccccc1)Nc1nnc(-c2ccccc2)o1,16.5 µM
10,O=C(CNCc1ccccn1)Nc1ccc([N+](=O)[O-])cc1C(=O)Nc1ccccc1F,3.05 µM
11,COc1cc2c(cc1OC)-c1c3c(cc4c1[C@@H](C2)N(C)CC4)OCO3,17.6 µM
12,COc1ccc(NC(=O)N[C@@H]2CC[C@H](CCn3cc(-c4ccccn4)nn3)O[C@H]2CO)cc1,12.7 µM
13,COC(=O)c1ccccc1-c1ccc(C(c2c(C)[nH][nH]c2=O)c2c(C)[nH][nH]c2=O)o1,15.7 µM
14,O=c1[nH]c(O)c(N=Nc2cc([N+](=O)[O-])ccc2O)c(=O)[nH]1,25.5 µM
15,O=C(CSc1ccc2nnc(-c3ccccn3)n2n1)Nc1ccc2c(c1)OCO2,46.5 µM
16,c1ccc(-c2nc(-c3ccncc3)n[nH]2)nc1,2.79 µM
17,CC(C)(C)C1=Nn2c(nnc2-c2ccccn2)SC1,6.44 µM
18,Oc1cccc2c(-c3nn[nH]n3)ccnc12,2.14 µM
19,Cc1ccccc1C(=O)Nc1nnc(-c2ccco2)o1,43.1 µM
20,Clc1ccc(OCc2nc(-c3ccccn3)n[nH]2)cc1,5.91 µM
21,O=Nc1ccc(O)c2ncccc12,13.6 µM
22,CSCC[C@H](NC(=O)OC(C)(C)C)C(=O)N/N=C/c1cccc2cccnc12,22.9 µM

row,SMILES,AC50
1,c1ccc(-c2cn(C[C@H]3CC[C@H](Cn4cc(-c5ccccn5)nn4)O3)nn2)nc1,< 0.5 µM
2,O=S(=O)(N[C@@H]1CC[C@H](CCn2cc(-c3ccccn3)nn2)O[C@@H]1CO)c1cccc(Cl)c1,16.7 µM
3,c1ccc(-c2nc3cc4ccccc4cc3[nH]2)nc1,32.7 µM
4,COc1ccc(C2C(C#N)=C(N)Oc3n[nH]c(-c4ccccn4)c32)c(OC)c1OC (stereo not given),53.3 µM
5,CCN(C(=O)COc1cccc2cccnc12)C1CCS(=O)(=O)C1 (stereo not given),45.1 µM
6,COc1cc([N+](=O)[O-])cc(/C=N/NC(=O)Cn2cncn2)c1O,5.87 µM
7,NC1=NN=C(N2N=C(c3ccco3)CC2(O)C(F)(F)F)n2ncnc2C1 (stereo not given),12 µM
8,O=C(Nc1nc(-c2ccccn2)cs1)c1ccc(F)c(S(=O)(=O)N2CCOCC2)c1,2.76 µM
9,O=C(N[C@H]1CC[C@@H](CCn2cc(-c3ccccn3)nn2)O[C@@H]1CO)c1cccnc1,9.19 µM
10,CCN(CC)c1ccc(/C=N/NC(=O)c2ccc3nc[nH]c3c2)c(O)c1,12.5 µM
11,N#CC1=C(N)Oc2c(ccc3cccnc23)C1c1ccccc1 (stereo not given),17.7 µM
12,O=C(N[C@@H]1CC[C@H](CCn2cc(-c3ccccn3)nn2)O[C@H]1CO)c1ccccc1,27.6 µM
13,COc1ccc(C2CC(=O)Oc3c(C(CCN4CCCCC4)c4ccc(N(C)C)cc4)c(OC)cc(OC)c32)cc1 (stereo not given),10.2 µM
14,O=C(Nc1nc(-c2ccccn2)cs1)C1CCCC1,15.5 µM
15,O=c1[nH]c(-c2ccccn2)nc2ccccc12,7.86 µM
16,COc1cc(-c2nnc(NC(=O)CS(=O)(=O)c3ccc(F)cc3)o2)cc(OC)c1OC,24.3 µM
17,COc1ccccc1NC(=O)CSc1ccc(-c2ccccn2)nn1,3.1 µM
18,C=CCNc1nc(-c2ccccn2)nnc1-c1ccccc1,< 0.5 µM
19,CC1CCN(S(=O)(=O)c2ccc(C(=O)Nc3nnc(C4=COCCO4)o3)cc2)CC1,1.21 µM
20,CCOc1ccccc1NC(=O)CN(c1ccc(OC)cc1)S(=O)(=O)c1c(C)[nH]c(=O)[nH]c1=O,10.5 µM
21,COc1cccc(/C=N/NC(=O)C(=O)N2CCCCCC2)c1O,18.8 µM
22,COc1cc(C(=O)NCc2nnc(SCC(=O)Nc3nccs3)o2)cc(OC)c1OC,58.8 µM

row,SMILES,AC50
1,c1ccc(-c2nccc(-c3ccco3)n2)nc1,11.2 µM
2,N#Cc1ccc(OCC(=O)NCCCn2ccnc2)cc1,8.65 µM
3,Cc1cc(C)c2nc(C)cc(N/N=C/c3ccc(O)cc3)c2c1,37.3 µM
4,CCC(COC)Oc1cc(NCc2ccccc2)c2ncn(C(C)C)c2c1 (stereo not given),23.9 µM
5,C=CCn1c(CNc2ccccc2)nnc1SCC(=O)N/N=C/c1ccc(O)cc1O,25.1 µM
6,C[C@@H]1CN([C@H](C)CO)S(=O)(=O)c2ccc(C3=CCCC3)cc2O[C@H]1CN(C)Cc1ccccn1,70 µM
7,CC1(c2ccccc2)NC(=O)N(CC(=O)Nc2nc(-c3ccccn3)cs2)C1=O (stereo not given),6.64 µM
8,Cc1cccc(C(=O)Nc2nnc(-c3ccncc3)o2)c1,36.5 µM
9,CC(C)[C@H](NC(=O)c1ccccc1Cl)C(=O)Nc1nc(-c2ccccn2)cs1,6.72 µM
10,CSc1ccccc1NC(=O)CN(C)C(=O)COc1cccc2cccnc12,13.8 µM
11,COc1cc(/C=N/NC(=O)c2cncc(Br)c2)cc([N+](=O)[O-])c1O,42 µM
12,CN(CC(=O)O)Cc1nc2ccccc2[nH]1,7.77 µM
13,O=C(COC(=O)c1ccc(O)cc1O)Nc1nnc(-c2ccccc2)o1,13.7 µM
14,CC(=O)NC(c1ccc(Cl)cc1Cl)c1ccc2cccnc2c1O (stereo not given),5.14 µM
15,Clc1cccc(-c2ccc(CNCc3ccccn3)o2)c1,21.2 µM
16,Cc1cccc(S(=O)(=O)N[C@H]2CC[C@@H](CCn3cc(-c4ccccn4)nn3)O[C@@H]2CO)c1,24.3 µM
17,Cc1ccc2cc(C3C(C#N)=C(N)Oc4c3ccc3cccnc43)c(=O)[nH]c2c1 (stereo not given),7.43 µM
18,O=C(CN1CC(=O)Oc2ccccc21)NCc1ccco1,2.05 µM
19,CCN(CCCl)c1cc(CN(C)C)cc(NC(=O)c2ccc(C(=O)Nc3cc(CN(C)C)cc(N(CC)CCCl)c3)cc2)c1,1.92 µM
20,O=C(CSc1nnc(CNC(=O)c2ccc(F)cc2)o1)Nc1nccs1,61.9 µM
21,O=S(=O)(N[C@H]1CC[C@H](CCn2cc(-c3ccccn3)nn2)O[C@@H]1CO)c1cccc(Cl)c1,19.2 µM
22,O=[N+]([O-])c1cc(Cl)cc(/C=N\Nc2ccccn2)c1O,5.13 µM

row,SMILES,AC50
1,Oc1ccc(CN2CCC3CCCCC3C2)c2cccnc12 (stereo not given),1.22 µM
2,Cc1cccc(CNC(=O)c2cc(-c3ccccc3)on2)c1,23.4 µM
3,FC(F)(F)c1cnc(C(c2ccccn2)c2ncn[nH]2)c(Cl)c1 (stereo not given),3.93 µM
4,NC(=O)CSc1nnc(-c2ccc(O)cc2)n1Cc1ccco1,40.8 µM
5,CC(=O)Nc1ccc(Oc2nc(-c3ccccn3)nc3ccccc23)cc1,7.02 µM
6,O=S1(=O)N=C(N/N=C/c2ccccn2)c2ccccc21,4.02 µM
7,O=C(NN=C(c1ccccc1)c1ccccn1)c1ccccc1,16.9 µM
8,Cc1ccc(S(=O)(=O)n2oc(=O)c(C3CCCCC3)c2N)cc1,16 µM
9,CN(C)S(=O)(=O)c1cccc(NC(=O)CSc2cccc3cccnc23)c1,5.76 µM
10,C[C@@H]1CN([C@H](C)CO)C(=O)Cc2cc(N(C)C)ccc2O[C@H]1CN(C)Cc1ccc(Oc2ccccc2)cc1,27.5 µM
11,COc1ccc2nc(/N=C/c3c(C)[nH]n(-c4ccc(C)cc4)c3=O)sc2c1,46.3 µM
12,O=C(N[C@@H]1CC[C@@H](CCn2cc(-c3ccccn3)nn2)O[C@H]1CO)c1ccncc1,16.7 µM
13,C/C(=N\NC(=O)C(C)Oc1ccc([N+](=O)[O-])cc1)c1ccccn1 (stereo not given),4.39 µM
14,C(=N\Nc1ccc2nncn2n1)/c1ccccn1,14 µM
15,C/C(=N\NC(=O)c1cccc2ccccc12)c1ccccn1,3.15 µM
16,c1ccc(-c2csc(Nc3nc(-c4ccccn4)nnc3-c3ccccc3)n2)cc1,0.897 µM
17,O=S(=O)(N[C@@H]1CC[C@H](CCn2cc(-c3ccccn3)nn2)O[C@H]1CO)c1cccc(F)c1,18.2 µM
18,O=C(Nc1nnc(-c2ccco2)o1)c1ccc(N2C(=O)CCC2=O)cc1,22.8 µM
19,Cc1cc(C(=O)N/N=C/c2c(CO)cnc(C)c2O)c2ccccc2n1,3.5 µM
20,O=S(=O)(N[C@@H]1CC[C@@H](CCn2cc(-c3ccccn3)nn2)O[C@@H]1CO)c1cccc(Cl)c1,27.2 µM
21,COCc1cc(=O)[nH]c(Nc2nc3ccc(C)cc3o2)n1,7.59 µM
22,O=C(N/N=C(\c1ccccc1)c1cccnc1)c1cccc(F)c1,21.7 µM

row,SMILES,AC50
1,O=S(=O)(c1ccccc1)N1C[C@H]2[C@@H](c3ccccc31)[C@@H](CO)N2Cc1ccccn1,52.3 µM
2,O=C(NCCCn1ccnc1)C(=O)NCC1OCCN1S(=O)(=O)c1ccc(F)cc1 (stereo not given),3.5 µM
3,c1ccc(-c2nnc(-c3ccccn3)nc2NCCc2ccccn2)cc1,< 0.5 µM
4,Oc1c(CN2CCN(c3ccc(F)cc3)CC2)cc(Cl)c2cccnc12,2.5 µM
5,O=S(=O)(N[C@@H]1CCCN(Cc2ccc(OCCO)cc2)C1)c1cccc2cccnc12,16.2 µM
6,OCC1CCN(Cc2ccc(O)c3ncccc23)CC1,< 0.5 µM
7,CC(=O)NC(c1cc(Cl)c2cccnc2c1O)C(C)C (stereo not given),1.47 µM
8,N#CC1=C(N)Oc2c(ccc3cccnc23)C1c1cccnc1 (stereo not given),7.36 µM
9,C/C=C/c1ccc([C@H]2[C@@H](CNC(=O)CC)N(Cc3ccccn3)[C@H]2CO)cc1,45 µM
10,CC(=O)Nc1cccc(NC(=O)CSc2ccc(-c3ccccn3)nn2)c1,2.78 µM
11,O=C(c1ccco1)[C@@H]1[C@@H]2C(=O)N(c3ccccc3)C(=O)[C@@H]2C2c3ccccc3C=CN21 (stereo not given in full),45.9 µM
12,Cc1ccccc1-n1c(O)c(/C=N/NC(=O)c2ccncc2)c(=O)[nH]c1=O,11.5 µM
13,O=S1(=O)N=C(N(CCO)/N=C/C=C/c2ccccc2)c2ccccc21,53.9 µM
14,CC1CC1C(=O)Nc1nc(-c2ccccn2)cs1 (stereo not given),15.2 µM
15,c1ccc(-c2ccc(SCc3cccnc3)nn2)nc1,1.81 µM
16,OCCN(Cc1cccnc1)Cc1ccccn1,2.28 µM
17,O=C(CSc1n[nH]c(-c2ccccn2)n1)Nc1ccc(F)cc1,1.09 µM
18,Cc1ccc(Nc2c(-c3ccccn3)nc3cc(C)ccn23)cc1,3.02 µM
19,N#CCC(=O)N/N=C\c1ccccc1OC/C=C/c1ccccc1,6.51 µM
20,CCN1CCN(C(c2cccnc2)c2cc(Cl)c3cccnc3c2O)CC1 (stereo not given),4.03 µM
21,O=C(N[C@H]1CC[C@@H](CCn2cc(-c3ccccn3)nn2)O[C@H]1CO)c1ccc(F)cc1,12.6 µM
22,Cc1cccc(C(=O)Nc2nnc(-c3cccnc3)o2)c1,21.7 µM

# Source: PubChem BioAssay AID651703 (Broad Institute, 2012)
